Data set [1] relates to bone resorption as enhanced by PTH (parathyroid hormone). Nature of the data set: Determination of bone resorption suppressive activity (PTH-enhanced, isolated mouse femur culture). The format is cell-based, female BALB/c mice. The note with it: 168 h, test compound 10 μg/ml, PTH 1 μM, 7 days culture, total calcium content, 100x(Cp-Cs)/(Cp-Cc). The procedure:
Further, the compound (I) of this invention or salts thereof have an excellent activity of suppressing bone resorption. Their suppressive action against bone resorption as enhanced by PTH (parathyroid hormone) was determined by the method described below. The results are shown in [Table 3].
Determination of bone resorption suppressive activity
Femurs were aseptically isolated from female BALB/c mice at 8-10 weeks of age. After the bone marrow cavity was washed with a Ham's F-12 medium containing 10% (w/w) thermally inactivated fetal calf serum, 100 unit/ml penicillin G and 100 unit/ml streptomycin (hereinafter referred to as culture broth), each femur was added to 1 ml of the culture broth and precultured for 3 hours at 37° C. in the presence of 5% carbon dioxide gas and 95% air. Each bone was transferred to 1 ml of the culture broth supplemented with PTH (produced by Peptide Institute, Inc., final concentration of 1 μM) and the test compound (final concentration 10 μg/ml (and cultured for 7 more days, after which the total calcium content in the culture broth was determined using Calcium E-Test Wako (manufactured by Wako Pure Chemical Industries, Ltd.). The bone resorption suppressive activity of the test compound was calculated using the following equation:
Bone resorption suppressive activity(%)=100x(Cp-Cs)/(Cp-Cc)
Cc: Total calcium content in the culture broth containing neither PTH nor test compound
Cp: Total calcium content in the culture broth containing PTH
Cs: Total calcium content in the culture broth containing both PTH and test compound

Data set [2] has as its target T1, human recombinant cathepsin L (Homo sapiens, UniProt P07711).
T1 construct: they were identified as a precursor of human cathepsin L and a product processed therefrom; made in house; host or cells: mouse myeloma Sp2/0 cells stably transformed with pTBN-HCLneo (Sp-HCL26); secreted, purified from serum-free culture supernatant
The data set can be described thus: Determination of cathepsin L inhibitory activity. The format is biochemical. The note with it: human recombinant cathepsin L 1 ng; 20 μM Z-Phe-Arg-7MCA; pH 5.5; 37° C., 20 minutes; read-out: Inhibitory activity potency IC50 (Cathepsin L) (converted). The procedure: (a) Determination of cathepsin L inhibitory activity
To 75 μl of a reaction mixture containing 1 ng of human recombinant cathepsin L (those produced in Reference Examples 1 through 7 below were employed), 2 μM of dithiothreitol (hereinafter abbreviated as DTT), 1 mM of ethylenediaminetetraacetate disodium salt, 0.1M of a sodium acetate buffer solution (pH 5.5) and various concentrations of the sample, 25 μl of 20 μM benzyloxycarbonyl-L-phenylalanyl-L-arginine-4-methylcoumaryl-7-amide (hereinafter simply referred to as Z-Phe-Arg-7MCA, manufactured by Peptide Institute, Inc.) was added to initiate the reaction, and the reaction mixture was incubated at 37° C. for 20 minutes, followed by addition of 100 μl of a solution containing 100 mM of sodium monochloroacetate to suspend the reaction. The amount of liberated 4-methyl-7-aminocoumarin was determined at an excitation wavelength of 365 nm and a fluorescence wavelength of 450 nm, using a fluorophotometer (FCA: manufactured by Baxter Labs). The sample concentration required to cause 50% inhibition was expressed as the IC50 value, with the fluorescence value obtained from the same reaction in the absence of the sample taken as 100%.

The nature of a further data set: Toxicity study. The note with it: rats, orally, 300 mg/kg. It counts as in vivo. The procedure:
Compound 1 caused no death in rats when it was orally administered at 300 mg/kg.

A further data set deals with T2, cathepsin B (Homo sapiens, UniProt P07858).
T2 construct: purchased Sigma Chemical Co
The data set can be described thus: Determination of cathepsin B inhibitory activity. It counts as biochemical. The note with it: cathepsin B 30 ng (Sigma); 20 μM Z-Phe-Arg-7MCA; pH 5.5; 37° C., 20 minutes; read-out: Inhibitory activity potency IC50 (TABLE 2, head printed Cathepsin L) (converted). The procedure:
(b) Determination of cathepsin B inhibitory activity
To 75 μl of a reaction mixture containing 30 ng of cathepsin B (produced by Sigma Chemical Co.), 2 μM DTT, 1 mM ethylenediaminetetraacetate disodium salt, 0.1M sodium acetate buffer (pH 5.5) and various concentrations of the sample, 25 μl of 20 μM Z-Phe-Arg-7MCA was added to initiate the reaction, and the reaction mixture was incubated at 37° C. for 20 minutes, followed by addition of 100 μl of a solution containing 100 mM sodium monochloroacetate to suspend the reaction. The amount of liberated 4-methyl-7-aminocoumarin was determined at an excitation wavelength of 365 nm and a fluorescence wavelength of 450 nm, using a fluorophotometer. The sample concentration required to cause 50% inhibition was expressed as the IC50 value, with the fluorescence value obtained from the same reaction in the absence of the sample taken as 100%.

Counter-ions that a name gives are not always drawn.

T1 sequence (P07711 114-333): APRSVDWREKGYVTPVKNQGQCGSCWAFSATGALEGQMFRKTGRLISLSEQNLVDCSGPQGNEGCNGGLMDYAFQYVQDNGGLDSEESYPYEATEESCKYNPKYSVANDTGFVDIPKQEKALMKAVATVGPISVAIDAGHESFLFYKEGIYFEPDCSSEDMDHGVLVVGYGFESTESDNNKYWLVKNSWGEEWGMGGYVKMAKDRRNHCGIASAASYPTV

As usually defined, the inhibition is the change of the read-out against control, counted positive when it falls. The IC50 is the midpoint of a concentration-inhibition curve. Regarding `CC(=O)OCCCNC(=O)[C@H](Cc1ccccc1)NC(=O)[C@H]1O[C@@H]1C(=O)O` [Compound 6, N-[N-[(2S,3S)-3-trans-carboxyoxirane-2-carbonyl]-L-phenylalanyl]-3-amino-acetoxypropane monosodium salt], in data set [1], the inhibition at 10 µg/mL came to 144%. Further, the IC50 in data set [2] is 13.2 nM.

As for `COCCCNC(=O)[C@H](Cc1ccccc1)NC(=O)[C@H]1O[C@@H]1C(=O)O` [Compound 2, N-[N-[(2S,3S)-3-trans-carboxyoxirane-2-carbonyl]-L-phenylalanyl]-1-amino-3-methoxypropane monosodium salt], the IC50 in data set [2] was 8.56 nM.

With `O=C(NCCCO)[C@H](Cc1ccccc1)NC(=O)[C@H]1O[C@@H]1C(=O)O` [Compound 4, N-[N-[(2S,3S)-3-trans-carboxyoxirane-2-carbonyl]-L-phenylalanyl]-3-amino-1-propanol monosodium salt], in data set [1], the inhibition at 10 µg/mL was determined as 176%.

As for `CCOC(=O)[C@H]1O[C@@H]1C(=O)N[C@@H](Cc1ccccc1)C(=O)NCCCOC` [Compound 1, N-[N-[(2S,3S)-3-trans-ethoxycarbonyloxysirane-2-carbonyl]-L-phenylalanyl]-1-amino-3-methoxypropane], in “Toxicity study”, the “death after oral administration” value is “no death”.

Turning to `CSCCCNC(=O)[C@H](Cc1ccccc1)NC(=O)[C@H]1O[C@@H]1C(=O)O` [Compound 8, N-[N-[(2S,3S)-3-trans-carboxyoxirane-2-carbonyl]-L-phenylalanyl]-1-amino-3-methylthiopropane monosodium salt], the IC50 on cathepsin B was 5.46 nM; in data set [2], 8.19 nM. The inhibition at 10 µg/mL in data set [1] was 142%.

(Values after patent publication US5679708A, “Epoxysuccinic acid derivatives, their production and use” (Takeda Chemical Industries, Ltd., priority 1994, dated 1997).)
